Key:
Assay type in all cases: cell-based
[1] = system: 3D model of human airway epithelium; settings: 48 h, 6 mg/ml
Protocol: Various compositions were tested for their ability to protect a 3D model of human airway epithelium, constituted with primary human epithelial cells freshly isolated from nasal (MucilAir™ nasal pool), or tracheal or bronchial biopsies (MatTek PE-200-6.5). MucilAir™ and MatTek tissues are reconstituted human 3D tissue from airways and lung surgical pieces, fully differentiated, pseudostratified in vitro epithelium. MucilAir™_Pool is of nasal polyp origin and reconstituted with a mixture of cells isolated from 14 different donors. […] MatTek tissues are from tracheo-bronchial origin. The respiratory epithelium lining the nose and throat have very similar histology and architecture. These two different models reconfirm that models from different origin have similar responses to treatment in the case that one model may have more underlying inflammation, or other variability with respect to its retrieval than another. […]
Tissue integrity was also monitored using transepithelial electrical resistance (“TEER”) measurements. […]
For TEER measurements, 200 μL of warm MucilAir™ media or MatTek TEER buffer was applied on the apical side of each insert. […] The resistance (Ω) is read on the Voltohmmeter and the TEER value was calculated with the following formula: TEER (Ω·cm^2)=(resistance value (Ω)−100 (Ω))×0.33 (cm^2). […]

[2] = system: 3D model of human airway epithelium; assay: Prostaglandin E2 ELISA on basal medium of bradykinin-stimulated 3D airway epithelia (MucilAir, MatTek)
Protocol: (§1) Various compositions were tested for their ability to protect a 3D model of human airway epithelium, constituted with primary human epithelial cells freshly isolated from nasal (MucilAir™ nasal pool), or tracheal or bronchial biopsies (MatTek PE-200-6.5). MucilAir™ and MatTek tissues are reconstituted human 3D tissue from airways and lung surgical pieces, fully differentiated, pseudostratified in vitro epithelium. MucilAir™_Pool is of nasal polyp origin and reconstituted with a mixture of cells isolated from 14 different donors. […] MatTek tissues are from tracheo-bronchial origin. The respiratory epithelium lining the nose and throat have very similar histology and architecture. These two different models reconfirm that models from different origin have similar responses to treatment in the case that one model may have more underlying inflammation, or other variability with respect to its retrieval than another.
(§2) Compositions were formulated with various concentrations of acetylsalicylic acid (ASA 0.6 mg/ml or ASA 6 mg/ml) in an aqueous saline solution vehicle such as 0.9% NaCl, 1.25 mM CaCl2, 10 mM HEPES. 10 μL of each formulation was added apically either to the MucilAir™ or MatTek tissues. Formulations were either added 10 minutes after activation of an inflammatory response in the media (FIGS. 1A-B, 3A, 4A), or 5 minutes before activation of an inflammatory response in the media (FIGS. 2A-B, 3B, 4B). Due to the rate of saliva production and concomitant dilution of acetylsalicylic acid on the mucosa, administration of each concentration in vitro correlates to a 10× concentration in product form. For example, 0.6 mg/ml ASA in the in vitro measurements corresponds administration of 6 mg/ml ASA in compositions, and 6 mg/ml […] corresponds to administration of 60 mg/ml in compositions.
(§3) Typically, the inflammatory cytokine bradykinin stimulates the prostaglandin pathway (through arachidonic acid) which then stimulates IL-8, another inflammatory cytokine. […] The inflammatory response of the prostaglandin pathway was stimulated through the addition of 10 μL of 25 mg/ml bradykinin protein was applied to the apical side of the MucilAir™ media.
(§4) Four hours following bradykinin application various measurements of the inflammatory response were measured. Epithelia were washed twice with MucilAir™ culture medium in order to clean the inoculum. Liquid aliquots from the basal medium were collected and stored at −80° C. for future study.
(§5) Prostaglandin E2 or IL-8 enzyme-linked immunosorbent assays (ELISA) were performed on the liquid aliquots from the basal medium to determine the amount of prostaglandin E2 produced as a result of inflammatory conditions initiated in each test condition. […] Although, acetylsalicylic acid is typically administered in doses greater than these measured, this dosage increased the inflammatory response.
MatTek (tracheal bronchial tissue) or MucilAir (nasal polyps) 3D inserts were placed in pre-warmed media corresponding to each cell system and incubated for 15 minutes at 37° C. L of saliva (negative control) or treatment was added to the apical surfaces. 5 minutes later, 10 μL of saliva or bradykinin was added to the apical side as well. Bradykinin was obtained from Tocris or New England Peptide (NEP) as indicated. At 4 hours, samples from the basal media were collected and frozen at −80° for PGE-2 ELISA measurements. At 24 hours, the inserts were moved to fresh basal media (corresponding to each cell system) and 200 L of media were added to each apical side for TEER analysis as described previously. The plate was then incubated for 5 minutes. Following TEER measurements, the apical solution was removed and 10 μL of each treatment (or saliva) was added to the apical surface. No bradykinin was added. TEER was measured again at 48 hours. Additionally, at 24 hours and 48 hours, basal media was collected and frozen for IL-8 and LDH analyses. […]

[3] = system: 3D model of human airway epithelium; assay: IL-8 ELISA on basal medium of bradykinin-stimulated 3D airway epithelia (MucilAir, MatTek)
Protocol: as §1, §2, §3, §4, §5
MatTek (tracheal bronchial tissue) or MucilAir (nasal polyps) 3D inserts were placed in pre-warmed media corresponding to each cell system and incubated for 15 minutes at 37° C. L of saliva (negative control) or treatment was added to the apical surfaces. 5 minutes later, 10 μL of saliva or bradykinin was added to the apical side as well. Bradykinin was obtained from Tocris or New England Peptide (NEP) as indicated. At 4 hours, samples from the basal media were collected and frozen at −80° for PGE-2 ELISA measurements. […] TEER was measured again at 48 hours. […]

[4] = dose above the therapeutic window
[5] = overall statement, concentration not given

TEER (barrier function of the epithelia) [1]: < 100 Ω·cm^2
SMILES: CC(=O)Oc1ccccc1C(=O)O [ASA, acetylsalicylic acid]
prostaglandin E2 production (inflammatory response) versus positive control ([2]; 0.6 mg/ml ASA added 5 minutes before bradykinin (FIGS. 2A, 2B)): did inhibit inflammation in a statistically significant manner
prostaglandin E2 production (inflammatory response) versus positive control ([2]; 0.6 mg/ml ASA added 10 minutes after bradykinin, measured 4 hours after bradykinin (FIGS. 1A, 1B)): resulted in an anti-inflammatory response
prostaglandin E2 production (inflammatory response) versus positive control ([2]; 6 mg/ml ASA added 5 minutes before bradykinin (FIG. 2A)): no statistical significance with respect to positive control
prostaglandin E2 production (inflammatory response) versus positive control ([2]; 6 mg/ml ASA added 10 minutes after bradykinin, measured 4 hours after bradykinin (FIG. 1A)): increased the inflammatory response in a statistically significant matter
PGE2 relative to maximum bradykinin-induced level [2, 4]: increased
PGE-2 levels (bradykinin induced) [2, 5]: significantly decreasing
IL-8 concentration ([3]; 0.6 mg/ml ASA, therapeutic and prophylactic modalities (FIGS. 4A, 4B)): A similar result was not observed
IL-8 concentration ([3]; 6 mg/ml ASA, prophylactic modality (added before bradykinin, FIG. 4B)): significantly greater
IL-8 concentration ([3]; 6 mg/ml ASA, therapeutic modality (added after bradykinin, FIG. 4A)): significantly greater
IL-8 relative to maximum bradykinin-induced level [3, 4]: increased
levels of IL-8 protein [3, 5]: did not appreciably decrease

Source: patent US20220313710A1, “COMPOSITIONS AND METHODS USING NON-STEROIDAL ANTI-INFLAMMATORY DRUGS” (APPLIED BIOLOGICAL LABORATORIES, INC., priority 2019, published 2022)
